Source: ChEMBL document CHEMBL3817752, “Antimycobacterial activity of new N(1)-[1-[1-aryl-3-[4-(1H-imidazol-1-yl)phenyl]-3-oxo]propyl]-pyridine-2-carboxamidrazone derivatives” (Bioorg Med Chem Lett, 2016)
Converted amounts (≈) assume the structure as drawn. The source made the active and inactive calls. The calls are words filed in the database; no cut-off is given here.

Legend:
[1] = test system: Mycobacterium scrofulaceum; assay: Antimycobacterial activity against Mycobacterium scrofulaceum NCTC 10803 after 7 days by resazurin microtiter assay; assay type: functional; settings: 168 h
[2] = target: T1, Sterol 14alpha-demethylase (Mycobacterium tuberculosis) (UniProt P9WPP9); assay: Binding affinity to N-terminal His-tagged Mycobacterium tuberculosis H37Rv ATCC 25618 CYP51 expressed in Escherichia coli Rosetta (DE3) by spectrophotometric analysis
T1 sequence (whole entry): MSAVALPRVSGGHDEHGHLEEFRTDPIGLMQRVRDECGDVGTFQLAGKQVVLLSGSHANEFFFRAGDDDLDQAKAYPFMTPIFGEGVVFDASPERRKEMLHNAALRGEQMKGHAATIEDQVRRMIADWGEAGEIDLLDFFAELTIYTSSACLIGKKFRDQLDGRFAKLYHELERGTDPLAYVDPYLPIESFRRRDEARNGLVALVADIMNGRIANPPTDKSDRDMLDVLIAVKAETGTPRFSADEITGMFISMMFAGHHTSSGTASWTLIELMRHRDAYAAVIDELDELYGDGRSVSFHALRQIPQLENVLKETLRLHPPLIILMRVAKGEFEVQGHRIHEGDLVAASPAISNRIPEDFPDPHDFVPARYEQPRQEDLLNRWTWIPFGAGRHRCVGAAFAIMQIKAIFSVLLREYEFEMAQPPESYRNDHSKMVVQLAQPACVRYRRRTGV

Mycobacterium kansasii = assay: Antimycobacterial activity against Mycobacterium kansasii NCTC 10268 after 7 days by resazurin microtiter assay; assay type: functional; settings: NCTC 10268, 168 h
[3] = test system: Mycobacterium intracellulare; assay: Antimycobacterial activity against Mycobacterium intracellulare NCTC 10425 after 7 days by resazurin microtiter assay; assay type: functional; settings: NCTC 10425, 168 h
Staphylococcus aureus [4] = assay: Antimicrobial activity against Staphylococcus aureus ATCC 25923 at 20 ug per disk after 18 to 24 hrs by agar diffusion assay; assay type: functional; settings: read-out: DIZ
[5] = Cytotoxicity against African green monkey Vero cells after 72 hrs by MTT assay; assay type: cell-based; settings: chlorocebus sabaeus
Mycobacterium marinum = assay: Antimycobacterial activity against Mycobacterium marinum CIP 6423 after 7 days by resazurin microtiter assay; assay type: functional; settings: CIP 6423, 168 h
[6] = test system: Mycobacterium tuberculosis; assay: Antimycobacterial activity against Mycobacterium tuberculosis H37Ra […] after 7 days by resazurin microtiter assay; assay type: functional; settings: 168 h
Mycobacterium avium = assay: Antimycobacterial activity against Mycobacterium avium NCTC 08559 after 7 days by resazurin microtiter assay; assay type: functional; settings: NCTC 08559, 168 h
Candida albicans [7] = assay: Antimicrobial activity against Candida albicans 685 clinical isolate at 20 ug per disk after 18 to 24 hrs by agar diffusion assay; assay type: functional; settings: read-out: DIZ
Escherichia coli [8] = assay: Antimicrobial activity against Escherichia coli ATCC 25922 at 20 ug per disk after 18 to 24 hrs by agar diffusion assay; assay type: functional; settings: read-out: DIZ
Mycobacterium gordonae = assay: Antimycobacterial activity against Mycobacterium gordonae NCTC 10267 after 7 days by resazurin microtiter assay; assay type: functional; settings: NCTC 10267, 168 h
[9] = Selectivity index, ratio of CC50 for African green monkey Vero cells to MIC for Mycobacterium tuberculosis H37Ra […]; assay type: toxicity, cell-based; settings: read-out: Selectivity Index
Escherichia coli [10] = assay: Antimicrobial activity against Escherichia coli ATCC 25922 at 30 ug per disk after 18 to 24 hrs by agar diffusion assay; assay type: functional; settings: read-out: DIZ
Staphylococcus aureus [11] = assay: Antimicrobial activity against Staphylococcus aureus ATCC 25923 at 30 ug per disk after 18 to 24 hrs by agar diffusion assay; assay type: functional; settings: read-out: DIZ
Candida albicans [12] = assay: Antimicrobial activity against Candida albicans 685 clinical isolate at 5 ug per disk after 18 to 24 hrs by agar diffusion assay; assay type: functional; settings: read-out: DIZ

| Structure (SMILES) | MIC [1] | Activity [2] | MIC (Mycobacterium kansasii) | MIC [3] | zone of inhibition at 20 µg/disc (Staphylococcus aureus [4]) | CC50 at 72 h [5] | MIC (Mycobacterium marinum) | MIC [6] | MIC (Mycobacterium avium) | zone of inhibition at 20 µg/disc (Candida albicans [7]) | zone of inhibition at 20 µg/disc (Escherichia coli [8]) | MIC (Mycobacterium gordonae) | selectivity ratio [9] | zone of inhibition at 30 µg/disc (Escherichia coli [10]) | zone of inhibition at 30 µg/disc (Staphylococcus aureus [11]) | zone of inhibition at 5 µg/disc (Candida albicans [12]) |
| --- | --- | --- | --- | --- | --- | --- | --- | --- | --- | --- | --- | --- | --- | --- | --- | --- |
| N/C(=N/NC(CC(=O)c1ccc(-n2ccnc2)cc1)c1cccc(F)c1)c1ccccn1 (stereo not given) | 9.3 µM (≈ 3.98 µg/mL) | inactive | 9.3 µM (≈ 3.98 µg/mL) | 74.7 µM (≈ 32 µg/mL) | 16 mm | 26.5 µM | 18.7 µM (≈ 8.01 µg/mL) | 4.7 µM (≈ 2.01 µg/mL) | 74.7 µM (≈ 32 µg/mL) | 11 mm | 7 mm | 2.3 µM (≈ 0.985 µg/mL) | – | – | – | – |
| N/C(=N/NC(CC(=O)c1ccc(-n2ccnc2)cc1)c1cccc(Cl)c1)c1ccccn1 (stereo not given) | 18 µM (≈ 8.01 µg/mL) | inactive | 9 µM (≈ 4 µg/mL) | 72 µM (≈ 32 µg/mL) | 22 mm | 68.6 µM | 18 µM (≈ 8.01 µg/mL) | 18 µM (≈ 8.01 µg/mL) | 72 µM (≈ 32 µg/mL) | 11 mm | 7 mm | 4.5 µM (≈ 2 µg/mL) | – | – | – | – |
| N/C(=N/NC(CC(=O)c1ccc(-n2ccnc2)cc1)c1ccc(Cl)cc1)c1ccccn1 (stereo not given) | 18 µM (≈ 8.01 µg/mL) | inactive | 9 µM (≈ 4 µg/mL) | 72 µM (≈ 32 µg/mL) | 20 mm | 78.8 µM | 18 µM (≈ 8.01 µg/mL) | 9 µM (≈ 4 µg/mL) | 72 µM (≈ 32 µg/mL) | 9 mm | 8 mm | 4.5 µM (≈ 2 µg/mL) | – | – | – | – |
| N/C(=N/NC(CC(=O)c1ccc(-n2ccnc2)cc1)c1ccccc1)c1ccccn1 (stereo not given) | 19.5 µM (≈ 8 µg/mL) | inactive | 19.5 µM (≈ 8 µg/mL) | 78 µM (≈ 32 µg/mL) | 14 mm | 63.5 µM | 19.5 µM (≈ 8 µg/mL) | 19.5 µM (≈ 8 µg/mL) | 78 µM (≈ 32 µg/mL) | 5 mm | 7 mm | 9.7 µM (≈ 3.98 µg/mL) | – | – | – | – |
| N/C(=N/NC(CC(=O)c1ccc(-n2ccnc2)cc1)c1cccc(Br)c1)c1ccccn1 (stereo not given) | 32.7 µM (≈ 16 µg/mL) | inactive | 16.3 µM (≈ 7.98 µg/mL) | 131 µM (≈ 64.1 µg/mL) | 19 mm | 51.3 µM | 16.3 µM (≈ 7.98 µg/mL) | 16.3 µM (≈ 7.98 µg/mL) | 131 µM (≈ 64.1 µg/mL) | 13 mm | 8 mm | 2 µM (≈ 0.979 µg/mL) | – | – | – | – |
| N/C(=N/NC(CC(=O)c1ccc(-n2ccnc2)cc1)c1cccc([N+](=O)[O-])c1)c1ccccn1 (stereo not given) | 8.8 µM (≈ 4.01 µg/mL) | inactive | 8.8 µM (≈ 4.01 µg/mL) | > 140 µM | 13 mm | 28.7 µM | 35.1 µM (≈ 16 µg/mL) | 4.4 µM (≈ 2 µg/mL) | 140 µM (≈ 63.8 µg/mL) | 10 mm | 5 mm | 8.8 µM (≈ 4.01 µg/mL) | – | – | – | – |
| N/C(=N/NC(CC(=O)c1ccc(-n2ccnc2)cc1)c1ccc(Cl)cc1Cl)c1ccccn1 (stereo not given) | 16.7 µM (≈ 8.01 µg/mL) | inactive | 4.2 µM (≈ 2.01 µg/mL) | 33.3 µM (≈ 16 µg/mL) | 17 mm | 27.8 µM | 33.3 µM (≈ 16 µg/mL) | 9 µM (≈ 4.31 µg/mL) | 33.3 µM (≈ 16 µg/mL) | 8 mm | 6 mm | 9 µM (≈ 4.31 µg/mL) | – | – | – | – |
| N/C(=N/NC(CC(=O)c1ccc(-n2ccnc2)cc1)c1ccc(Br)cc1)c1ccccn1 (stereo not given) | 16.3 µM (≈ 7.98 µg/mL) | inactive | 4.1 µM (≈ 2.01 µg/mL) | 131 µM (≈ 64.1 µg/mL) | 20 mm | 298 µM | 8.2 µM (≈ 4.01 µg/mL) | 16.3 µM (≈ 7.98 µg/mL) | 131 µM (≈ 64.1 µg/mL) | 8 mm | 6 mm | 2 µM (≈ 0.979 µg/mL) | 18 | – | – | – |
| N/C(=N/NC(CC(=O)c1ccc(-n2ccnc2)cc1)c1ccccc1F)c1ccccn1 (stereo not given) | 18.7 µM (≈ 8.01 µg/mL) | inactive | 18.7 µM (≈ 8.01 µg/mL) | 74.7 µM (≈ 32 µg/mL) | 14 mm | 62.1 µM | 18.7 µM (≈ 8.01 µg/mL) | 17.6 µM (≈ 7.54 µg/mL) | 74.7 µM (≈ 32 µg/mL) | 5 mm | 7 mm | 4.7 µM (≈ 2.01 µg/mL) | – | – | – | – |
| Clc1ccc(COC(Cn2ccnc2)c2ccc(Cl)cc2Cl)cc1 (stereo not given) | – | Active | – | – | – | – | – | – | – | – | – | – | – | – | – | – |
| CC(=O)OCC1=C(C(=O)O)N2C(=O)[C@@H](NC(=O)Cc3cccs3)[C@H]2SC1 [CEPHALOTHIN] | – | – | – | – | – | – | – | – | – | – | – | – | – | 11 mm | 31 mm | – |
| N/C(=N/NC(CC(=O)c1ccc(-n2ccnc2)cc1)c1ccc(F)cc1)c1ccccn1 (stereo not given) | 18.7 µM (≈ 8.01 µg/mL) | inactive | 9.3 µM (≈ 3.98 µg/mL) | 74.7 µM (≈ 32 µg/mL) | 20 mm | 78.8 µM | 18.7 µM (≈ 8.01 µg/mL) | 9.3 µM (≈ 3.98 µg/mL) | 74.7 µM (≈ 32 µg/mL) | 6 mm | 6 mm | 18.7 µM (≈ 8.01 µg/mL) | – | – | – | – |
| N/C(=N/NC(CC(=O)c1ccc(-n2ccnc2)cc1)c1ccccc1[N+](=O)[O-])c1ccccn1 (stereo not given) | 8.8 µM (≈ 4.01 µg/mL) | inactive | 17.6 µM (≈ 8.02 µg/mL) | 140 µM (≈ 63.8 µg/mL) | 13 mm | 48 µM | 35.1 µM (≈ 16 µg/mL) | 8.8 µM (≈ 4.01 µg/mL) | 70.3 µM (≈ 32 µg/mL) | 4 mm | 6 mm | 8.8 µM (≈ 4.01 µg/mL) | – | – | – | – |
| N/C(=N/NC(CC(=O)c1ccc(-n2ccnc2)cc1)c1ccccc1Cl)c1ccccn1 (stereo not given) | 18 µM (≈ 8.01 µg/mL) | inactive | 18 µM (≈ 8.01 µg/mL) | 144 µM (≈ 64.1 µg/mL) | 20 mm | 53.2 µM | 18 µM (≈ 8.01 µg/mL) | 36 µM (≈ 16 µg/mL) | 72 µM (≈ 32 µg/mL) | 7 mm | 6 mm | 18 µM (≈ 8.01 µg/mL) | – | – | – | – |
| N/C(=N/NC(CC(=O)c1ccc(-n2ccnc2)cc1)c1ccccc1Br)c1ccccn1 (stereo not given) | 16.3 µM (≈ 7.98 µg/mL) | inactive | 16.3 µM (≈ 7.98 µg/mL) | 131 µM (≈ 64.1 µg/mL) | 19 mm | 29 µM | 16.3 µM (≈ 7.98 µg/mL) | 32.7 µM (≈ 16 µg/mL) | 65.4 µM (≈ 32 µg/mL) | 8 mm | 5 mm | 8.2 µM (≈ 4.01 µg/mL) | – | – | – | – |
| NNC(=O)c1ccncc1 [ISONIAZID] | 116 µM (≈ 15.9 µg/mL) | – | – | > 467 µM | – | > 7000 µM | 116 µM (≈ 15.9 µg/mL) | 0.9 µM (≈ 0.123 µg/mL) | 116 µM (≈ 15.9 µg/mL) | – | – | 116 µM (≈ 15.9 µg/mL) | – | – | – | – |
| C[C@@H]1[C@H](O)[C@@H](C)/C=C/C=C/C=C/C=C/C=C/C=C/C=C/[C@H](O[C@@H]2O[C@H](C)[C@@H](O)[C@H](N)[C@@H]2O)C[C@@H]2O[C@](O)(C[C@@H](O)C[C@@H](O)[C@H](O)CC[C@@H](O)C[C@@H](O)CC(=O)O[C@H]1C)C[C@H](O)[C@H]2C(=O)O [AMPHOTERICIN B] | – | – | – | – | – | – | – | – | – | – | – | – | – | – | – | 16 mm |
| N/C(=N/NC(CC(=O)c1ccc(-n2ccnc2)cc1)c1ccc([N+](=O)[O-])cc1)c1ccccn1 (stereo not given) | 8.8 µM (≈ 4.01 µg/mL) | inactive | 35.1 µM (≈ 16 µg/mL) | > 140 µM | 13 mm | 23.1 µM | 35.1 µM (≈ 16 µg/mL) | 4.4 µM (≈ 2 µg/mL) | 140 µM (≈ 63.8 µg/mL) | 5 mm | 5 mm | 8.8 µM (≈ 4.01 µg/mL) | – | – | – | – |
